“Also recorded” adds a separate entry of the source.
How the values were obtained:
[1] = tested on: BALB/c splenocytes stimulated with Con A; test: Mitogen response to Con A (T cell proliferation); format: cell-based, mouse (BALB/c)
Method: (§1) This study examined the potential immunomodulatory activities of PIP[4,4,4] on mouse spleen cells using in vitro techniques. The effect of the compound on the ability of murine splenocytes to respond to the […] mitogen concanavalin A (Con A) and the B cell mitogen lipopolysaccharide (LPS) was studied. […] In addition, the compound was tested for its effect on the mixed lymphocyte response (MLR). The MLR is an in vitro manifestation of cell-mediated immunity in which T cells respond to differences in major histocompatibility complex (MHC) class II molecules (Ia antigens) expressed on foreign or allogeneic leukocytes (primarily B cells and […]/monocytes).
(§2) a. Preparation of cells--Under sterile conditions, spleens were removed from BALB/c (H-2^d) and CBA/J (H-2^k) mice. BALB/c splenocytes were used as responder cells in the mitogen assays and the MLR assays, whereas CBA/J cells were used as stimulator cells in the MLR assays. […] Cells were exposed to various concentrations of the test compounds for the entire culture period. The initial dilutions in medium were filter sterilized to maintain aseptic conditions.
(§3) b. Mitogen assays--Con A and LPS were obtained from Sigma Chemical Co. (St. Louis, Mo., U.S.A.). 2×10^5 BALB/c splenocytes were added per well. […] Triplicate wells were set up in 96-well flat-bottom microtiter plates for all treated cultures and positive controls (100% of control) were performed in replicates of nine wells. Plates were incubated at 37° C. in a humidified CO2 incubator for 3 days, pulsed with 1 μCi ^3 H-TdR/well for 6-16 hours, harvested and counted in a liquid scintillation counter. All data were processed using Lotus 1-2-3 and SigmaPlot software.

[2] = tested on: BALB/c splenocytes stimulated with LPS; test: Mitogen response to LPS (B cell proliferation); format: cell-based, mouse (BALB/c)
Method: as §1, §2, §3

[3] = tested on: BALB/c responder splenocytes with CBA/J stimulator cells; test: Mixed lymphocyte response (MLR); format: cell-based, mouse (BALB/c
Method: as §1, §2
c. […] Thus, a BALB/c (2×10^5 cells/well) anti-CBA/J (8×10^5 cells/well) MLR combination was used in these studies. CBA/J spleen cells were irradiated with 2,000 R to prevent them from responding to BALB/c MHC antigens. Triplicate wells were set up in 96-well flat-bottom microtiter plates for all treated cultures and positive controls (100% of control) were performed in replicates of nine wells. Plates were incubated at 37° C. in a humidified CO2 incubator for 5 days, pulsed with 1 μCI […]/well for 6-16 hours, harvested and counted in a liquid scintillation counter. All data were processed using Lotus 1-2-3 and SigmaPlot software.

C(CCNCC1CCNCC1)CNCC1CCNCC1 [PIP[4,4,4], N,N'-Bis(4-piperidinylmethyl)-1,4-butanediamine]
Effect on Con A response (in words) [1]: no inhibitory effect on the Con A response | Proliferative response (CPM), Mean ± SD ([1]; Con A 3 μg/ml, drug 0.010 μm): 343389 ± 21927 CPM | Proliferative response (CPM), Mean ± SD ([1]; Con A 3 μg/ml, drug 0.100 μm): 333419 ± 31211 CPM | Proliferative response (CPM), Mean ± SD ([1]; Con A 3 μg/ml, drug 1.000 μm): 340397 ± 25586 CPM | Proliferative response (CPM), Mean ± SD ([1]; Con A 3 μg/ml, drug 10.000 μm): 365771 ± 2876 CPM | Proliferative response (CPM), Mean ± SD ([1]; Con A 3 μg/ml, drug 100.000 μm): 313504 ± 279 CPM | Proliferative response (CPM), Mean ± SD ([1]; Con A 3 μg/ml, drug 1000.000 μm): 273418 ± 14954 CPM | activity at 0.01 µM ([1]; Mus musculus, Splenocyte, 72 h, Con A 3 μg/ml, drug 0.010 μm, read-out: % Control): 173% | activity at 0.1 µM ([1]; Mus musculus, Splenocyte, 72 h, Con A 3 μg/ml, drug 0.100 μm, read-out: % Control): 168% | activity at 1 µM ([1]; Mus musculus, Splenocyte, 72 h, Con A 3 μg/ml, drug 1.000 μm, read-out: % Control): 172% | activity at 10 µM ([1]; Mus musculus, Splenocyte, 72 h, Con A 3 μg/ml, drug 10.000 μm, read-out: % Control): 185% | activity at 100 µM ([1]; Mus musculus, Splenocyte, 72 h, Con A 3 μg/ml, drug 100.000 μm, read-out: % Control): 158% | activity at 1000 µM ([1]; Mus musculus, Splenocyte, 72 h, Con A 3 μg/ml, drug 1000.000 μm, read-out: % Control): 138% | Proliferative response (CPM), Mean ± SD ([2]; LPS 25 μg/ml, drug 0.010 μm): 175516 ± 10793 CPM | Proliferative response (CPM), Mean ± SD ([2]; LPS 25 μg/ml, drug 0.100 μm): 174197 ± 23886 CPM | Proliferative response (CPM), Mean ± SD ([2]; LPS 25 μg/ml, drug 1.000 μm): 192921 ± 32628 CPM | Proliferative response (CPM), Mean ± SD ([2]; LPS 25 μg/ml, drug 10.000 μm): 187500 ± 8089 CPM | Proliferative response (CPM), Mean ± SD ([2]; LPS 25 μg/ml, drug 100.000 μm): 117804 ± 14014 CPM | Proliferative response (CPM), Mean ± SD ([2]; LPS 25 μg/ml, drug 1000.000 μm): 83427 ± 18281 CPM | activity at 0.01 µM ([2]; Mus musculus, Splenocyte, 72 h, LPS 25 μg/ml, drug 0.010 μm, read-out: % Control): 100% | activity at 0.1 µM ([2]; Mus musculus, Splenocyte, 72 h, LPS 25 μg/ml, drug 0.100 μm, read-out: % Control): 99% | activity at 1 µM ([2]; Mus musculus, Splenocyte, 72 h, LPS 25 μg/ml, drug 1.000 μm, read-out: % Control): 110% | activity at 10 µM ([2]; Mus musculus, Splenocyte, 72 h, LPS 25 μg/ml, drug 10.000 μm, read-out: % Control): 106% | activity at 100 µM ([2]; Mus musculus, Splenocyte, 72 h, LPS 25 μg/ml, drug 100.000 μm, read-out: % Control): 67% | activity at 1000 µM ([2]; Mus musculus, Splenocyte, 72 h, LPS 25 μg/ml, drug 1000.000 μm, read-out: % Control): 47% | Effect on LPS response (in words) ([2]; suppression in the 1-100 μm range): some inhibition of the LPS response; also recorded: some dose-dependent suppression | Effect on MLR (in words) [3]: MLR was inhibited by PIP[4,4,4] primarily at 10 and 100 μm | Proliferative response (CPM), Mean ± SD ([3]; MLR, 5 days, drug 0.010 μm): 330859 ± 11640 CPM | Proliferative response (CPM), Mean ± SD ([3]; MLR, 5 days, drug 0.100 μm): 411919 ± 6106 CPM | Proliferative response (CPM), Mean ± SD ([3]; MLR, 5 days, drug 1.000 μm): 54594 ± 11873 CPM | Proliferative response (CPM), Mean ± SD ([3]; MLR, 5 days, drug 10.000 μm): 568531 ± 6200 CPM | Proliferative response (CPM), Mean ± SD ([3]; MLR, 5 days, drug 100.000 μm): 29717 ± 3146 CPM | Proliferative response (CPM), Mean ± SD ([3]; MLR, 5 days, drug 1000.000 μm): 22583 ± 2490 CPM | activity at 0.01 µM ([3]; Mus musculus, Splenocyte, 120 h, MLR, 5 days, drug 0.010 μm, read-out: % Control): 79% | activity at 0.1 µM ([3]; Mus musculus, Splenocyte, 120 h, MLR, 5 days, drug 0.100 μm, read-out: % Control): 99% | activity at 1 µM ([3]; Mus musculus, Splenocyte, 120 h, MLR, 5 days, drug 1.000 μm, read-out: % Control): 131% | activity at 10 µM ([3]; Mus musculus, Splenocyte, 120 h, MLR, 5 days, drug 10.000 μm, read-out: % Control): 136%
